Experiments:
Assay type in all cases: functional, cell-based; call rule not given here
[1] = Cytotoxicity against human BxPC3 cells; conditions: BXPC-3
[2] = test system: HeLa; assay: Cytotoxicity against human HeLa cells after 48 hrs by MTT assay
[3] = test system: MCF7; assay: Cytotoxicity against human MCF7 cells after 48 hrs by MTT assay
[4] = test system: DU-145; assay: Cytotoxicity against human DU145 cells
[5] = test system: NCI-H460; assay: Cytotoxicity against human NCI-H460 cells
[6] = Homo sapiens, HeLa, 48 h, read-out: IC50
[7] = Homo sapiens, MCF7, 48 h, read-out: IC50

Row | Structure (SMILES) | IC50 [1] | IC50 [2, 6] | IC50 [3, 7] | IC50 [4] | IC50 [5] | IC50 ([2]; hela) | IC50 ([3]; mcf7)
1 | CC(=O)OC[C@H]1[C@H](O)[C@@H](O)[C@@H](O)[C@@H]2NC(=O)c3c(cc4c(c3O)OCO4)[C@@H]12 | 70 nM | < 400 nM | < 400 nM | – | – | – | –
2 | O=C1N[C@@H]2C(=C[C@H](O)[C@@H](O)[C@H]2O)c2cc3c(c(O)c21)OCO3 [NARCICLASINE] | 50 nM | – | – | 30 nM | 50 nM | – | –
3 | O=C1N[C@@H]2C(=C[C@H](O)[C@@H](O)[C@H]2O)c2cccnc21 [listing 1 of 2 here] | – | – | – | – | – | Not Active | Not Active
4 | O=C1N[C@@H]2C(=C[C@H](O)[C@@H](O)[C@H]2O)c2cccnc21 [listing 2 of 2 here] | – | > 100000 nM | > 100000 nM | – | – | – | –
5 | O=C1N[C@@H]2C(=C[C@H](O)[C@@H](O)[C@H]2O)c2ccc[n+]([O-])c21 | – | > 100000 nM | > 100000 nM | – | – | – | –
6 | O=C(OC[C@H]1[C@H](O)[C@@H](O)[C@@H](O)[C@@H]2NC(=O)c3c(cc4c(c3O)OCO4)[C@@H]12)c1ccccc1 | 10 nM | < 400 nM | < 400 nM | 10 nM | 30 nM | – | –

Source: ChEMBL document CHEMBL3352114, “Synthesis and biological evaluation of unnatural derivatives of narciclasine: 7-aza-nornarciclasine and its N-oxide” (Bioorg Med Chem Lett, 2014)
